Laboratory results taken from US7138113B2, “Glycoprotein matrix compositions and methods related thereto” (Pharmachem Laboratories, Inc., priority 2001, dated 2006).

Key:
[1] = tested on: lower density lipoproteins (LDL+VLDL); assay: Inhibition of cupric ion oxidation of lower density lipoproteins (quality of antioxidant activity); details: 6 hours
[2] = Stability of CoQ10 in a 50° C. oven open to the air (HPLC); assay type: physicochemical; details: for Loss of CoQ10 after 36 days at 50° C. (equivalent to 3 months at room temperature) / Loss of CoQ10 after 72 days at 50° C. (equivalent to 6 months at room temperature): open to the air
Procedure: 100 mg of USP CoQ10 (Sigma) and a composition from Example 1 was placed in a 10 ml beaker in a 50° C. oven open to the air. The amount of CoQ10 remaining was analyzed by HPLC using a C18 column (Perkin Elmer Pecosil 5, 15 cm) and a solvent of 75% methanol and 25% isopropanol.

Row | IC50 ([1]; LDL+VLDL oxidation, 25 μM cupric ion, 37° C., based on CoQ10 conc.) | Loss of CoQ10 at 0 days ([2]; 0 days) | Loss of CoQ10 after 36 days at 50° C. (equivalent to 3 months at room temperature) ([2]; listed as USP CoQ10) | Loss of CoQ10 after 36 days at 50° C. (equivalent to 3 months at room temperature) ([2]; listed as commercial CoQ10) | Loss of CoQ10 after 72 days at 50° C. (equivalent to 6 months at room temperature) ([2]; listed as USP CoQ10) | Loss of CoQ10 after 72 days at 50° C. (equivalent to 6 months at room temperature) ([2]; listed as commercial sample) | IC50 ([1]; concentration of selenium to inhibit LDL+VLDL oxidation 50%, cupric ion) | Structure (SMILES)
1 | 1.33 µM | 0% | 6.8% | 6.8% | 16.8% | 16.8% |  | COC1=C(OC)C(=O)C(C/C=C(\C)CC/C=C(\C)CC/C=C(\C)CC/C=C(\C)CC/C=C(\C)CC/C=C(\C)CC/C=C(\C)CC/C=C(\C)CC/C=C(\C)CCC=C(C)C)=C(C)C1=O [CoQ10 (USP), CoEnzyme Q10]
2 |  |  |  |  |  |  | 27 µM | C[Se]CC[C@H](N)C(=O)O [Selenomethionine]
